One data set deals with U2OS cells. Kind of data set: Azido-sugar cell labeling, U2OS cells. It is filed as cell-based, human. The note with it: 100 μM dye-phosphine. An excerpt:
(§1) The inventive and commercial compounds were examined in cell labeling experiments using azido-sugars and adenocarcinomic human alveolar basal epithelial (A549) cells, human osteosarcoma (U2OS) cells, and immortalized proximal tubule epithelial (HK2) cells. As is known in the art, introduction of labeled sugar moieties results in incorporation of the labeled sugar moieties in various cellular molecules and locations.
(§2) Metabolically incorporated azido-labeled sugars, N-azidoacetyl galactosamine, N-azidoacetyl glucosamine, and N-azidoacetyl mannosamine was detected in vivo. Cells were incubated with 40 μM azido-sugar in cell culture media for 72 hours and the live cells were incubated with 100 μM of dye-labeled phosphine. The cells were then washed, fixed with 4% paraformaldehyde and counterstained with Hoechst 33342 which labels nuclei. For fixed cells, the cells were incubated with the azido-sugar, fixed with 4% paraformaldehyde, permeabilized with 0.1% Triton X-100, and incubated with 100 μM of dye-labeled phosphine. In live cell labeling using the phosphine labeling reaction used 100 μM of the dye-labeled phosphine for three hours at 37° C., and the CLICK-iT® labeling reaction, using DIBO-Alexa dye, used 30 μM of the DIBO Alexa dye for one hour at room temperature (RT). […]

Data set [1] relates to secretory vesicles in HK2, A549, and U2OS cells. The data set is described as follows: Secretory vesicle labeling with Az-ManNAc. Format: cell-based. The settings on record: N-azidoacetyl mannosamine; co-localized with PGP9.5. An excerpt: The inventive and commercial compounds were used to label secretory vesicles in various cell types using azido-sugars. […] Co-localization of Man-650 Compound 1-phosphine, and this labeling was co-localized with PGP9.5, a secreted protein, as shown in FIGS. 65B and 66B (red arrows).

Another data set has as its system A549 cell lysate. The data set is described as follows: A549 cell lysate labeling with azido-sugars, SDS-PAGE. Format: cell-based, human. As to the method:
The inventive and commercial compounds were examined in A549 cell lysate labeling experiments using azido-sugars. Cell extracts were prepared from A549 incubated with azido-sugar N-azidoacetylgalactosamine […], N-azidoacetylglucosamine (GlcNAz) or N-azidoacetylmannosamine […]. The cell extracts were incubated with either 550 Compound 1-phosphine, 650 Compound 1-phosphine, CLICK-iT® Alexa555-Alkyne, or CLICK-iT® Alexa Fluor 647 DIBO Alkyne and analyzed by SDS-PAGE. The resulting lysates were separated by electrophoresis. 10 μg protein was loaded onto a PAGE gel (4-12% Bis-Tris gel).
The resulting lysates were separated by electrophoresis. […]
FIGS. 63-64 graphically represent band intensity of FIGS. 61-62. […] Relative fluorescence intensity for the gel image of FIG. 61 comparing Alexa555 (copper) and 550 Compound 1-phosphine (FIG. 63) and for the gel image of FIG. 62 comparing Alexa647 (copper-less) and 650 Compound 1-phosphine (FIG. 64).

A further data set relates to HK2 cells. The data set is described as follows: Azido-sugar cell labeling, HK2 cells. Format: cell-based. The settings on record: 100 μM dye-phosphine.
Text: as §1
Metabolically incorporated azido-labeled sugars, N-azidoacetyl galactosamine, N-azidoacetyl glucosamine, and N-azidoacetyl mannosamine was detected in vivo. Cells were incubated with 40 μM azido-sugar in cell culture media for 72 hours and the live cells were incubated with 100 μM of dye-labeled phosphine. The cells were then washed, fixed with 4% paraformaldehyde and counterstained with Hoechst 33342 which labels nuclei. For fixed cells, the cells were incubated with the azido-sugar, fixed with 4% paraformaldehyde, permeabilized with 0.1% Triton X-100, and incubated with 100 μM of dye-labeled phosphine. In live cell labeling using the phosphine labeling reaction used 100 μM of the dye-labeled phosphine for three hours at 37° C., and the CLICK-iT® labeling reaction, using DIBO-Alexa dye, used 30 μM of the DIBO Alexa dye for one hour at room temperature (RT). In fixed cell labeling, the phosphine labeling reaction used 100 μM of the dye-labeled phosphine for three hours at 37° C., and the CLICK-IT® labeling reaction, using DIBO-Alexa dye, used 50 μM of the DIBO Alexa dye for one hour at RT in the presence of 5 μM copper for one hour at RT in the absence of copper.
HK2 cells, either live (column A) or fixed (column B), were labeled with N-azidoacetyl galactosamine followed by labeling with 550 Compound 1-phosphine (row 1), 650 Compound 1-phosphine (row 2), or Copperless CLICK-iT® using DIBO-Alexa647 (row 3), as shown in FIG. 52. A graphical representation of the spot average intensity for the images of FIG. 52 is shown for labeling live (FIG. 53) and fixed (FIG. 54) cells. […]

Another data set relates to A549 cells. The data set is described as follows: Azido-sugar cell labeling, A549 cells. It is filed as cell-based, human. The note with it: N-azidoacetyl galactosamine, 100 μM dye-phosphine 3 h 37° C.
Text: as §1
as §2, with “phosphine.” for “phosphine. In live cell labeling using the phosphine labeling reaction used 100 μM of the dye-labeled phosphine for three hours at 37° C., and the CLICK-iT® labeling reaction, using DIBO-Alexa dye, used 30 μM of the DIBO Alexa dye for one hour at room temperature (RT).”
Fluorescence intensity was measured in each spot identified using a specific Bio-Application with the ArrayScanVTI image analysis software. […]

Data set [2] can be described thus: Thermal stress stability of the compounds, purity by HPLC before and after storage. Format: physicochemical. The settings on record: unit size 1 mg; for Purity Before thermal stress: packed under argon, HPLC before storage; for Purity After thermal stress: under argon, stored at 50° C. for 14 days, HPLC. As to the method: The inventive compounds were evaluated for stability compared to commercial dyes. All compounds were packed under argon as 1 mg portions in plastic vials. The vials were sealed under argon with a drying pad in an aluminium coated pouch, and then stored at 50° C. for 14 days. The results of the stability study for selected compounds are shown below where the determination of purity was by HPLC before and after storage.

Another data set relates to mouse IgG immunoglobulin. Kind of data set: Functional plate assay of compound-PEG4-GAM conjugates (RFU). Format: binding. The note with it: conjugates at 4 μg/ml on mouse IgG coated plates; FIGS. 13-14. As to the method: Performance of compound-GAM conjugates and compound-GAR conjugates was evaluated in a functional assay. Wells of a 96 white opaque plate were coated with target proteins mouse IgG immunoglobulin or rabbit IgG immunoglobulin. One hundred μl mouse or rabbit IgG at a concentration of 10 μg/ml was applied to the corresponding wells in columns 1 and 2. The target proteins were serially diluted 1:1 from the wells in columns 2 to 11 using 100 μl PBS. One hundred μl of samples from the wells in column 11 were discarded. One hundred μl PBS was added to the wells in column 12. The plates were incubated overnight at 4° C. and then blocked 2×200 μl with Thermo Scientific SuperBlock® Blocking Buffer. […] The plates were washed with 2×200 μl with PBS-Tween and 1×200 μl with PBS and filled with PBS buffer (100 μl/well) prior to scanning on Tecan Safire using 562 nmexcitation/576 nmemission to detect fluorescence intensity and DyLight 649 and DyLight 650 plated were measured using 654 nmexcitation/673 nmemission.
As shown in FIGS. 13-14, the fluorescence intensity, also termed the RFU, was compared for compound-PEG4-GAM conjugates where the compound was DyLight 549-phosphine (blue; FIG. 13), 550 Compound 1-phosphine (red; FIG. 13), DyLight 649-phosphine (red; FIG. 14) and 650 Compound 1-phosphine (blue; FIG. 14) at various concentrations. […]

With “2-((1E,3E,5E)-5-(1-(6-(2-(3-(diphenylphosphino)-4-(methoxycarbonyl)benzamido)ethylamino)-6-oxohexyl)-3-methyl-5-sulfonato-3-(3-sulfonatopropyl)indolin-2-ylidene)penta-1,3-dienyl)-1-(2-methoxyethyl)-3-methyl-3-(3-sulfonatopropyl)-3H-indolium-5-sulfonate [650 Compound 1-phosphine]”, the “live cell labeling (spot average intensity) versus Alexa647-DIBO CLICK-iT” value with U2OS cells (N-azidoacetyl glucosamine) is “better than Alexa647-DIBO CLICK-iT® labeling”; with U2OS cells (N-azidoacetyl mannosamine) it was “better than Alexa647-DIBO CLICK-iT® labeling”; with HK2 cells (N-azidoacetyl galactosamine), “better than Alexa647-DIBO CLICK-iT® labeling”; in the data set on HK2 cells (N-azidoacetyl glucosamine), “better than Alexa647-DI BO CLICK-iT® labeling”; with HK2 cells (N-azidoacetyl mannosamine) it was “better than Alexa647-DIBO CLICK-iT® labeling”; with A549 cells it was “better than Alexa647-DIBO CLICK-iT® labeling”. Further, in data set [1], the secretory vesicle labeling entry is “resulted in labeling of secretory vesicles”. In addition, in the data set with A549 cell lysate (A549 lysates with Az-GalNAc, Az-GlcNAc or Az-ManNAc, FIG. 62), the “labeling pattern of lysate on gel” value is on record as “different labeling pattern for each of the three incorporated azido-sugars”. Moreover, the “Purity Before thermal stress” value in data set [2] is 97%. Further, in data set [2], the “Purity After thermal stress” value is reported as 96%. Also, the “fluorescence intensity (RFU) of compound-PEG4-GAM conjugates compared with DyLight 549 / DyLight 649 conjugate” value in the data set with mouse IgG immunoglobulin was “similar”.
“2-((1E,3E)-3-(1-(6-(2-(3-(diphenylphosphino)-4-(methoxycarbonyl)benzamido)ethylamino)-6-oxohexyl)-3-methyl-5-sulfonato-3-(3-sulfonatopropyl)indolin-2-ylidene)prop-1-enyl)-1-(2-methoxyethyl)-3-methyl-3-(3-sulfonatopropyl)-3H-indolium-5-sulfonate [550 Compound 1-phosphine]”: the “band intensity of labeled lysate versus CLICK-iT Alexa 555-alkyne” value in the data set with A549 cell lysate (A549 lysates, three azido-sugars, 10 μg protein per lane, FIG. 63) is “better than CLICK-iT® Alexa 555-alkyne”. Further, in data set [2], the “Purity Before thermal stress” value is on record as 96% and the “Purity After thermal stress” value is 96%. In the data set on mouse IgG immunoglobulin, the “fluorescence intensity (RFU) of compound-PEG4-GAM conjugates compared with DyLight 549 / DyLight 649 conjugate” value was “similar”.

For the origin of these results see patent US9365598B2, “Phosphine derivatives of fluorescent compounds” (Pierce Biotechnology, Inc., priority 2011, dated 2016).
